From the RepoRT retention time repository (doi:10.1021/es4044374)

Assay: RP, Waters XBridge C18, 50 × 2.1 mm, 3.5 µm, 30 °C, 0.2 mL/min, estimated dead time 0.55 min; A: water + 0.1% formic acid, pH 3; B: methanol + 0.1% formic acid, pH 3; gradient (min/%B) 0/10 4/50 17/95 25/95 25.1/10 30/10
Conditions: stereoisomer not certain

In order of rising LC retention time:
1. CN(C)C(=N)N=C(N)N [Metformin]  0.8 min
2. CC(O)C(=O)Nc1c(I)c(C(=O)NC(CO)CO)c(I)c(C(=O)NC(CO)CO)c1I (centres undefined) [Iopamidol]  1.2 min
3. CC(C)Nc1nc(N)[nH]c(=O)n1 [Atrazine-desethyl-2-hydroxy]  1.4 min
4. CC1=CC(=O)NS(=O)(=O)O1 [Acesulfame]  1.5 min
5. CC1=NNC(=O)N(N=Cc2cccnc2)C1 [Pymetrozine]  1.5 min
6. CC(C)NCC(O)c1ccc(NS(C)(=O)=O)cc1 (centres undefined) [Sotalol]  1.6 min
7. COc1nc(C)nc(N)n1 [2-Methyl-4-amino-6-methoxy-s-triazine]  1.7 min
8. Cc1ncc([N+](=O)[O-])n1CCO [Metronidazole]  2.1 min
9. COC(=O)NS(=O)(=O)c1ccc(N)cc1 [Asulam]  2.4 min
10. O=S(=O)(O)NC1CCCCC1 [Cyclamate]  3.6 min
11. CC(=O)Nc1c(C)n(C)n(-c2ccccc2)c1=O [4-Acetamidoantipyrine]  3.7 min
12. CC(=O)Nc1ccc(S(=O)(=O)Nc2nccs2)cc1 [N4-Acetylsulfathiazole]  4.1 min
13. OCC1OC(OC2(CCl)OC(CCl)C(O)C2O)C(O)C(O)C1Cl (centres undefined) [Sucralose]  4.4 min
14. CNC1(c2ccccc2Cl)CCCCC1=O (centres undefined) [Ketamine]  4.6 min
15. O=C(O)C(c1ccccc1)C1CCCCN1 (centres undefined) [Ritalinic acid]  4.7 min
16. CNCC(c1ccc(O)cc1)C1(O)CCCCC1 (centres undefined) [N,O-Didesmethylvenlafaxine]  4.9 min
17. CNC(=N[N+](=O)[O-])NCc1cnc(Cl)s1 [Clothianidin]  4.9 min
18. COc1cccc(C2(O)CCCCC2CN(C)C)c1 (centres undefined) [Tramadol]  4.9 min
19. COC(=O)C1C(OC(=O)c2ccccc2)CC2CCC1N2C (centres undefined) [Cocaine]  5 min
20. COCCc1ccc(OCC(O)CNC(C)C)cc1 (centres undefined) [Metoprolol]  5.1 min
21. NC(CC(=O)N1CCn2c(nnc2C(F)(F)F)C1)Cc1cc(F)c(F)cc1F (centres undefined) [Sitagliptin]  5.2 min
22. CCNc1nc(NC(C)(C)C)[nH]c(=O)n1 [Terbutylazine-2-hydroxy]  5.6 min
23. CC(C)(C)c1n[nH]c(=O)n(N)c1=O [Metribuzin-diketo]  5.9 min
24. COc1cc(OC)nc(NS(=O)(=O)c2ccc(NC(C)=O)cc2)n1 [N4-Acetylsulfadimethoxine]  6.3 min
25. COc1ccnc(CS(=O)c2nc3ccc(OC(F)F)cc3[nH]2)c1OC (centres undefined) [Pantoprazole]  6.6 min
26. COc1ccc2c(c1)C13CCCCC1C(C2)N(C)CC3 (centres undefined) [Dextromethorphan]  6.6 min
27. CC(C)NCC(O)COc1cccc2ccccc12 (centres undefined) [Propranolol]  6.6 min
28. CN(C)C(=O)Nc1ccc(Cl)cc1 [Monuron]  6.7 min
29. CSc1nnc(C(C)(C)C)c(=O)n1N [Metribuzin]  6.9 min
30. COC(=O)c1ccccc1S(=O)(=O)NC(=O)Nc1nc(C)nc(OC)n1 [Metsulfuron-methyl]  7.1 min
31. COC(=O)c1sccc1S(=O)(=O)NC(=O)Nc1nc(C)nc(OC)n1 [Thifensulfuron-methyl]  7.2 min
32. COc1ccc(CCN(C)CCCC(C#N)(c2ccc(OC)c(OC)c2)C(C)C)cc1OC (centres undefined) [Verapamil]  7.3 min
33. Cc1ccc(NS(=O)(=O)N(C)C)cc1 [N,N-Dimethyl-N'-p-tolylsulphamide]  7.5 min
34. COCC(C)N(C(=O)C(=O)O)c1c(C)csc1C (centres undefined) [Dimethenamid OXA]  7.5 min
35. CC(C)(C)Nc1nc(N)nc(Cl)n1 [Terbutylazine-desethyl]  7.6 min
36. CCc1cccc(C)c1N(C(=O)CS(=O)(=O)O)C(C)COC (centres undefined) [Metolachlor ESA]  7.8 min
37. CCc1cccc(C)c1N1C(=O)COCC1C (centres undefined) [Metolachlor morpholinone]  8.2 min
38. N#Cc1c(Cl)cccc1Cl [Dichlobenil]  8.5 min
39. CCOC(=O)C1CC(=O)C(=C(O)C2CC2)C(=O)C1 (centres undefined) [Trinexapac-ethyl]  8.9 min
40. O=C1Nc2ccc(Cl)cc2C(c2ccccc2)=NC1O (centres undefined) [Oxazepam]  9 min
41. CC(C)c1nc(N(C)S(C)(=O)=O)nc(-c2ccc(F)cc2)c1C=CC(O)CC(O)CC(=O)O (centres undefined) [Rosuvastatin]  9.2 min
42. CC1(C)CON(Cc2ccccc2Cl)C1=O [Clomazone]  9.4 min
43. Cc1cc(Cl)ccc1OCC(=O)O [MCPA]  9.5 min
44. CC1CC2C3CCC4=CC(=O)C=CC4(C)C3(F)C(O)CC2(C)C1(O)C(=O)CO (centres undefined) [Dexamethasone]  9.5 min
45. CCC(CO)NCCNC(CC)CO (centres undefined) [Ethambutol]  9.6 min
46. CC(C)Nc1nc(Cl)nc(NC(C)C)n1 [Propazine]  9.9 min
47. COCC(C)N(C(=O)CCl)c1c(C)csc1C (centres undefined) [Dimethenamid-P]  10 min
48. O=C(Nc1ccccc1-c1ccc(Cl)cc1)c1cccnc1Cl [Boscalid]  10.5 min
49. N#Cc1c[nH]cc1-c1cccc2c1OC(F)(F)O2 [Fludioxonil]  10.7 min
50. COc1ccc(C(=CC(=O)N2CCOCC2)c2ccc(Cl)cc2)cc1OC [Dimethomorph]  10.8 min
51. COc1cccc(C(=O)NN(C(=O)c2cc(C)cc(C)c2)C(C)(C)C)c1C [Methoxyfenozide]  10.9 min
52. C1=Cc2ccccc2Nc2ccccc21 [Iminostilbene]  11 min
53. CCCCC(C#N)(Cn1cncn1)c1ccc(Cl)cc1 (centres undefined) [Myclobutanil]  11.2 min
54. CCCCC(=O)N(Cc1ccc(-c2ccccc2-c2nn[nH]n2)cc1)C(C(=O)O)C(C)C (centres undefined) [Valsartan]  11.2 min
55. Cc1cc(Cl)ccc1OCCCC(=O)O [MCPB]  11.9 min
56. O=P(O)(O)OCCC(F)(F)C(F)(F)C(F)(F)C(F)(F)C(F)(F)C(F)(F)F [Perfluorooctyl phosphate]  12.1 min
57. CC(C)c1c(C(=O)Nc2ccccc2)c(-c2ccccc2)c(-c2ccc(F)cc2)n1CCC(O)CC(O)CC(=O)O (centres undefined) [Atorvastatin]  12.4 min
58. CC(C)Cc1ccc(C(C)C(=O)O)cc1 (centres undefined) [Ibuprofen]  13.6 min
59. CC1COC(Cn2cncn2)(c2ccc(Oc3ccc(Cl)cc3)cc2Cl)O1 (centres undefined) [Difenoconazole]  14.1 min
60. O=C(Nc1ccc(Cl)cc1)Nc1ccc(Cl)c(Cl)c1 [Triclocarban]  14.8 min
61. CC(C)OC(=O)C(C)(C)Oc1ccc(C(=O)c2ccc(Cl)cc2)cc1 [Fenofibrate]  15.7 min
62. O=C(O)CNS(=O)(=O)C(F)(F)C(F)(F)C(F)(F)C(F)(F)C(F)(F)C(F)(F)C(F)(F)C(F)(F)F [Perfluorooctane sulfonamidoacetic acid]  15.9 min
63. O=[N+]([O-])c1cc(C(F)(F)F)c(Cl)c([N+](=O)[O-])c1Nc1ncc(C(F)(F)F)cc1Cl [Fluazinam]  15.9 min
64. CCOP(=S)(OCC)Oc1nc(Cl)c(Cl)cc1Cl [Chlorpyrifos]  16 min
